In US6069172A, “(R)-2-(3-benzoylphenyl) propionic acid salts and pharmaceutical preparations containing them” (priority 1998, dated 2000):
Structures can show the parent of a compound that is named as a salt.

Key:
PMN leukocytes = conditions: cited from earlier work
T-cell = conditions: stimulated by these agonists; cited from earlier work
PMN leucocyte = conditions: 200 mg for 10 days; cited from earlier work
[1] = tested on: chemotactic activity induced by zymosan; conditions: healthy volunteers and patients; cited from earlier work
[2] = tested on: carrageenin-induced pleural exudate; PMN cell migration; conditions: cited from earlier work
neutrophil = conditions: Ca^++ ionophore and FLMP; cited from earlier work
human PMN leukocytes = assay: [Ca^++ ]i increase induced by IL-8 in human PMN leukocytes; type: cell-based; conditions: IL-8 50 ng/ml, % of basal [Ca^++ ]i (basal 100%), no drug 302 ± 11
Procedure: The results reported in Table 1 are cumulative data obtained from 8 trials (8 donors who gave their explicit consent, 3 to 7 cells per specimen). […] The responses, expressed as percent of basal value of [Ca^++ ]i, are the mean from all responsive cells; standard error of the mean (±SEM) and number of replications (in brackets) are also reported. […] IL-8 concentration was 50 ng/ml.

[3] = tested on: Ca^++ channels, human PMN neutrophils; assay: competition study with lanthanum ions: [Ca^++ ]i increase induced by IL-8, role of Ca^++ channels; type: cell-based; conditions: ketoprofen L-lysine salt 10^-8 M; La^+++ 10 μM; IL-8 50 ng/ml; % of basal (100%)
Procedure: Results reported in Table 2 are the cumulative values from 3 trials (3 donors, 3-7 cells per specimen). […] Responses are expressed as percent of basal [Ca^++ ]i value and are the mean from the values of all responsive cells. Standard error of the mean (SEM) and number of replications (in brackets) are also reported. […] The concentration of ketoprofen L-lysine salt was 10^-8 M, that of La^+++ 10 μM, and that of IL-8 50 ng/ml.

human PMN neutrophils [4] = assay: [Ca^++ ]i increase induced by FMLP in human PMN neutrophils; type: cell-based; conditions: FLMP 10^-7 M; % of basal (100%); no treatment 208 ± 7
Text: (§1) Results are expressed as percent of the basal value of [Ca^++ ]i and are the mean from the values of all responsive cells. Standard error of the mean (SEM) and number of replications (n, in brackets) are also reported.

human PMN neutrophils [5] = assay: [Ca^++ ]i increase induced by C5a in human PMN neutrophils; type: cell-based
Text: as §1

human PMN neutrophils [6] = assay: IL-8-stimulated human PMN neutrophil degranulation (elastase release), FIG. 1; type: cell-based; conditions: IL-8 50 ng/ml, cytoclasin B 10^-5 M, 30 min 37° C; FIG. 1, ** p<0.05 against IL-8
Procedure: Human PMN neutrophils (10^7 /ml) were stimulated in the presence of cytoclasin B (10^-5 M) by adding IL-8 (50 ng/ml) and incubating them for 30 min at 37° C. La^+++ was added 5 min before IL-8 and the lysine salts of (R)- and (S)-ketoprofen 15 min before IL-8. Degranulation was evaluated based on the amount of elastase released in the cell-free surnatant and is expressed as DOD×10^3 /min.

hyperalgesia = assay: animal or person
Text: In order to predict the therapeutic effect of the racemates in men, it is necessary to know how much the single enantiomers contribute to the global activity, using experimental models excluding metabolic bio-conversion. […] This model allows the contemporary evaluation of the inhibition of oedema formation and of hyperalgesia.

[7] = gastric ulcer-inducing properties in rats (ulcer score); type: in vivo; conditions: rat
Text: Guinea-pigs are a species naturally resistant to the gastrolesive action of NSAIDs, so that it is not possible to compare the two enantiomers in respect to this parameter in this species, unless using very high doses, having no predictive value. To this purpose, rats are necessarily, again, the chosen species, although the least suitable. […] The differences among the enantiomers and the racemate were statistically significant starting from the dose of […]: at this dose an "ulcer score" of 2 was evaluated for the (R) enantiomer, compared with "ulcer scores" of 3 and 4 for the racemate and the (S) enantiomer, respectively.

[8] = tested on: mouse peritoneal macrophages; assay: lipopolysaccharide-stimulated TNF-a release from mouse peritoneal macrophages; type: cell-based; conditions: LPS-stimulated; 10^-9 -10^-5 M
[9] = tested on: mouse peritoneal macrophages; assay: lipopolysaccharide-stimulated IL-1b release from mouse peritoneal macrophages; type: cell-based; conditions: LPS-stimulated; 10^-9 -10^-5 M
Neutrophils = conditions: 10^-6 M, 10 min 37° C; FIG. 2, ** p<0.01
Text: Results are expressed as the mean ±SD from 3 separated trials (** p<0.01 against each group).

oedema formation [10] = conditions: 25 to 750 mmoles/kg
oedema formation [11] = assay: animal or person; conditions: Cavia porcellus, read-out: dose from which oedema inhibition is statistically significant
TXB2 synthesis = TXB2 synthesis inhibition in human blood; type: cell-based; conditions: index of platelet antiaggregating properties
gastrolesive action = conditions: in vivo
platelet aggregation = assay: inhibitory action on platelet aggregation
[12] = tested on: ultra-violet radiation-induced epidermal erythema; conditions: topic; guinea pigs; cited from earlier work
[13] = tested on: carrageenin-induced oedema; conditions: compared with racemate and (S) enantiomer; rats; cited from earlier work
[14] = tested on: croton oil-induced ear oedema; conditions: compared with racemate and (S) enantiomer; mice; cited from earlier work
pain perception = conditions: men; compared with (S) enantiomers; cited from earlier work
[15] = rats; in words; cited from earlier work

For “4-[3-(4-Fluorophenyl)]-2-[[4-(N-3-(2-quinolinmethoxy) phenyl)]amino]phenylpropylbenzoic acid [ETH-615]”, the “chemotaxis of PMN leukocytes induced by FLMP” value (PMN leukocytes; FLMP) is given as “only slightly inhibited”, the “chemotaxis of PMN leukocytes induced by IL-8 or LTB4” value (PMN leukocytes; IL-8 or LTB4) is given as “clearly inhibited” and the T-cell migration (T-cell) is given as “no effects”.

For CC(C(=O)O)c1cccc(C(=O)c2ccccc2)c1 (racemic) [ketoprofen], the PMN leucocyte fagocytosis (PMN leucocyte) is listed as “reduction”, the “bactericidal function of PMN” value (PMN leucocyte) is listed as “not affected” and the “chemotactic activity induced by zymosan” value [1] is listed as “inhibited”. The “migration of cells into the pleural cavity, later study” value ([2]; later demonstration against the earlier one) was “exatly the opposite”, the “migration of cells into the pleural cavity” value ([2]; oral, PMN cells vs monocytes, thought in 1975) was “inhibit the migration of PMN cells, but not that of monocytes” and the “carrageenin-induced formation of pleural exudate” value ([2]; oral) was “inhibited”. For the same molecule, the “inhibition of neutrophil activation / blockade of Ca^++ ion entry” value (neutrophil) was “completely inactive”.

In the case of C[C@@H](C(=O)O)c1cccc(C(=O)c2ccccc2)c1 [(R)-ketoprofen L-lysine salt, (R)-2-(3-benzoylphenyl)propionic acid], the “[Ca^++ ]i (% ± SEM)” value (human PMN leukocytes; drug 10^-6 M) is reported as 182 ± 15%, the “[Ca^++ ]i (% ± SEM)” value (human PMN leukocytes; drug 10^-7 M) is reported as 193 ± 10% and the “[Ca^++ ]i (% ± SEM)” value (human PMN leukocytes; drug 10^-8 M) is reported as 188 ± 8%. For the same molecule, the “[Ca^++ ]i (% ± SEM)” value (human PMN leukocytes; drug 10^-9 M) was 364 ± 29%, the “La^+++ + IL-8 [Ca^++ ]i (% ± SEM)” value [3] was 176 ± 7% and the “FMLP [Ca^++ ]i (% ± SEM)” value (human PMN neutrophils [4]) was 193 ± 6%. The “C5a [Ca^++ ]i (% ± SEM)” value (human PMN neutrophils [5]; C5a 10^-8 M, % of basal (100%), no treatment 198 ± 10) was 153 ± 4%, the “percent of non responsive cells” value (human PMN neutrophils [5]; C5a stimulation and treatment with the L-lysine salts) was 50% and the “inhibitory effect on human PMN neutrophil degranulation (elastase release)” value (human PMN neutrophils [6]) was “specific inhibitory effects”. For the same molecule, the “inhibitory effect on hyperalgesia” value (hyperalgesia; 25 to 750 mmoles/kg) was “marked, dose-dependent inhibitory effect on hyperalgesia”, the “doses with marked, dose-dependent inhibition of hyperalgesia” value (hyperalgesia; maximal at the highest dose) was 75 to 250 mmol/kg and the ulcer score ([7]; 40 mmoles/kg) was 2. For the same molecule, the ulcer-inducing properties ([7]; compared with (S) enantiomer) was “less ulcer-inducing properties”, the “effect on TNF-a release” value [8] was “completely ineffective” and the “effect on IL-1b release” value [9] was “completely ineffective”. The “inhibitory effect on IL-8-stimulated chemotactic migration” value (Neutrophils) was “specific inhibitory effects”, the “inhibition of oedema formation” value (oedema formation [10]) was “significantly inhibited oedema formation” and the minimal effective dose (oedema formation [11]) was 250000 µmol/kg.

For C[C@@H](C(=O)O)c1cccc(C(=O)c2ccccc2)c1 [(R)-ketoprofen, (R)-2-(3-benzoylphenyl)propionic acid], the IC50 (TXB2 synthesis) was 9.75 ± 0.75 mM, the gastrolesive action (gastrolesive action) was “substantially devoid” and the “inhibitory action on platelet aggregation” value (platelet aggregation) was “substantially devoid”. The “inhibition of COX-1” value (COX-1) was “do not inhibit”, the “inhibition of COX-2” value (COX-2) was “do not inhibit” and the “Protection, UV radiation-induced epidermal erythema” value [12] was 53.1±4.6%. The “in vivo antiinflammatory effectiveness, carrageenin-induced oedema” value [13] was “significantly lower than those of the racemate and of the (S) enantiomer”, the “in vivo antiinflammatory effectiveness, croton oil-induced ear oedema” value [14] was “significantly lower than those of the racemate and of the (S) enantiomer” and the “inhibition of pain perception” value (pain perception) was “efficacy at least similar to that of the (S) enantiomers”. For the same molecule, the “conversion of (R) into (S) enantiomer” value [15] was “completely converted”.
